Laboratory results as given in patent US20250276996A1, “CATIONICALLY-ENFRAMED HIGH DENSITY AROMATIC PEPTIDES” (Research Foundation of the City University of New York, priority 2022, published 2025).
Entries after “also recorded” stand apart in the source; their conditions may differ. Non-standard residues stand in square brackets, D forms with d. Residues, ends and D or L forms follow the SMILES beside them. *: point of attachment. Biotin = O=C1N[C@H]2[C@H](CS[C@H]2CCCCC(=O)*)N1

Experiments:
ARPE-19 cells = assay: Mitochondrial potential in the presence of CCCP (TMRM); assay type: cell-based; details: 10 μM CCCP, TMRM
Protocol: Effects of peptides on mitochondrial potential in the presence of Carbonyl cyanide m-chlorophenylhydrazone (CCCP): ARPE-19 cells (ATTC-CRL-2302) (5×10^4 cells) were seeded in 35 mm glass dishes in DMEM/F12 medium with 10% FBS for 24 hr. On the day of the experiment, cells were cultured in DMEM/F12 in the presence of different concentrations of biotin-HDAP2 for 60 min (FIG. 17B). Then, cells were incubated with 10 μM CCCP in the presence of 5 nM TMRM, 100 nM Mito View Green, and 10 μg/ml Hoechst 33342 for 15 min at 37° C. Fluorescent images were immediately obtained with a Nikon Eclipse 50i fluorescence microscope (60× objective) using FITC (Mito View Green), Texas Red (TMRM), and DAPI (Hoechst) filters. Images were collected from three independent experiments, using 4-6 random fields for each treatment group, and imaged and analyzed as described for NR.

[1] = tested on: retinal ganglion cells (RGCs); assay: Retinal ganglion cell survival in retinal explants; details: Brn3a labeling
Description: FIG. 8 illustrates retinal explants labeled with Brn3a (green) to label retinal ganglion cells (RGCs), ToPro3 to label all cell nuclei (red) and ChAT to label displaced amacrine cells (blue).

[2] = tested on: retinal ganglion cells and optic nerve; assay: Optic nerve protection with elevated intraocular pressure; assay type: in vivo, DBA/2J mice
Protocol: A series of experiments were conducted to determine if biotin-HDAP2 preserves mitochondrial ultrastructure in retinal ganglion cells (RGC) axons, whether biotin-HDAP2 preserves the integrity of axons in the optic nerve and/or whether biotin-HDAP2 treatment improves RGC survival. To these ends, 100 DBA/2J mice (8 and 12 weeks old) were obtained with the goal of studying them at 6 and 12 months of age. A small number of animals were examined at 6 months, but they had not yet developed elevated intraocular pressure (IOP), and no differences were observed between treatment conditions in optic nerve appearance or retinal ganglion cell distribution. Therefore, further analysis was delayed until animals reached 10 months, when elevated IOP was reliably present.
Optic nerves from all three experimental conditions (control, untreated and biotin-HDAP2-treated) have been embedded for ultrastructural analysis.
Nerves were obtained from 10-month-old animals who had high IOP for at least 3 consecutive months. Differences between control, untreated and biotin-HDAP2-treated groups were striking and correlated closely with cumulative intraocular pressure (cIOP) exposure.
All retinas in this study were stained with RBPMS, imaged using confocal microscopy, and RGCs were automatically counted using ImageJ. To assess the overall effect of biotin-HDAP2 treatment on RGC survival, RGC counts between biotin-HDAP2-treated and Untreated animals were compared across all available time points.

`N=C(N)NCCC[C@@H](NC(=O)[C@H](Cc1ccccc1)NC(=O)[C@H](Cc1ccccc1)NC(=O)[C@@H](CCCNC(=N)N)NC(=O)CCCC[C@@H]1SC[C@@H]2NC(=O)N[C@@H]21)C(N)=O` [biotin-HDAP2, Biotin-dArg-Phe-Phe-dArg-NH2] (Biotin-[dR]FF[dR]-NH2) was tested. Which “effect on CCCP-mediated mitochondrial depolarization” value (ARPE-19 cells) did it give?
The value was “prevented CCCP-mediated decreases in the mitochondrial membrane potential in a dose-dependent manner”.

What about the “effect on CCCP-mediated mitochondrial depolarization” value (ARPE-19 cells; listed as Biotin-HDAP2) of the same compound?
The value was “prevented mitochondrial depolarization in a dose-dependent manner”.

What about the “survival of retinal ganglion cells in retinal explants” value [1] of the same compound?
The value was “promoted survival of retinal ganglion cells in retinal explants”.

And the “optic nerve axon morphology” value ([2]; 10-month-old animals, high IOP at least 3 months)?
The value was “morphologically comparable to those of young controls”.

What about the “RGC counts (mean)” value ([2]; all available time points, n=23) of the same compound?
The value was 26,267±14,440.

And the “RGC counts compared with other groups” value ([2]; elevated cIOP)?
Its value is “significantly higher RGC counts overall; also recorded: RGC counts similar to controls”.

And the “mitochondrial ultrastructure in RGC axons (TEM)” value ([2]; nerves exposed to high IOP)?
Its value is “more numerous and exhibit preserved cristae and greater structural integrity”.
